Among the data in patent US8846601B2, “Melanocortin receptor-specific peptides” (Palatin Technologies, Inc., priority 2009, dated 2014) are Ki values, retold here.

By Ki is commonly meant the dissociation constant of the complex between target and ligand, obtained from inhibition or displacement.

SMILES strings stand for the structures. Bridge positions count the residues as written; N and C are the ends. Square brackets hold non-standard residues; d marks the D form. Peptide text beside a SMILES is read from it. * marks the point of attachment. Bn = c1ccc(C*)cc1

T1 sequence (P32245 whole entry): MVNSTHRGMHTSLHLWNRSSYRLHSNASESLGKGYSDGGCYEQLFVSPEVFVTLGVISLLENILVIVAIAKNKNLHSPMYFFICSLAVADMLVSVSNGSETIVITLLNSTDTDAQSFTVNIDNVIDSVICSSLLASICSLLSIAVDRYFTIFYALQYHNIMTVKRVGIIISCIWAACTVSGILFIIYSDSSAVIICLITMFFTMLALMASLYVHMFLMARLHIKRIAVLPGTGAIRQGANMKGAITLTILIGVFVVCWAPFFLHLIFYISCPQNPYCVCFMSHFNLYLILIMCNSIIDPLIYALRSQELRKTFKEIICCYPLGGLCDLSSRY

One experiment concerns the target T1, hMC4-R (Homo sapiens (Human), UniProt P32245). The experiment can be described thus: Competitive inhibition binding assay using [I125]-NDP-α-MSH, hMC4-R membranes. The following applies: averaged; [I125]-NDP-α-MSH (values not marked *); read-out: MC4-R Ki. As for the experimental part:
A competitive inhibition binding assay is performed using membrane homogenates prepared from HEK-293 cells that express recombinant hMC4-R, hMC3-R, or hMC5-R, and from B-16 mouse melanoma cells (containing endogenous MC1-R). In some instances, HEK-293 cells that express recombinant hMC1-R were employed. In the examples that follow, all MC3-R, MC4-R and MC5-R values are for human recombinant receptors. […] Membrane homogenates were incubated with 0.2 nM (for hMC4-R) 0.4 nM (for MC3-R and MC5-R) or 0.1 nM (for mouse B16 MC1-R or hMC1-R) [I^125]-NDP-α-MSH (Perkin Elmer) and increasing concentrations of test peptides of the present invention in buffer containing 25 mM HEPES buffer (pH 7.5) with 100 mM NaCl, 2 mM CaCl2, 2 mM MgCl2, 0.3 mM 1,10-phenanthroline, and 0.2% bovine serum albumin. After incubation for 60 minutes at 37° C., the assay mixture was filtered and the membranes washed three times with ice-cold buffer. Filters were dried and counted in a gamma counter for bound radioactivity. […] Maximal specific binding (100%) was defined as the difference in radioactivity (cpm) bound to cell membranes in the absence and presence of 1 μM NDP-α-MSH. […] Each assay was conducted in triplicate and the actual mean values are described, with results less than 0% reported as 0%. Ki values for test peptides of the present invention were determined using Graph-Pad Prism® curve-fitting software.
In the case of `CC(=O)N[C@@H](CCCN)C(=O)N[C@H]1CCCNC(=O)CC[C@@H](C(N)=O)NC(=O)[C@H](Cc2c[nH]c3ccccc23)NC(=O)[C@H](CCCNC(=N)N)NC(=O)[C@@H](Cc2ccccc2)NC(=O)[C@H](CC(N)=O)NC1=O` [compound 158, Ac-Orn-cyclo(Orn-Asn- D-Phe-Arg-Trp-Glu)- NH2] (HELM PEPTIDE1{[ac].[Orn].[Orn].N.[dF].R.W.E.[am]}$PEPTIDE1,PEPTIDE1,3:R3-8:R3$$$V2.0), the Ki was 50 nM. Consider `CC(=O)N[C@@H](CCCNC(=N)N)C(=O)N[C@H]1CC(=O)NCCCC[C@@H](C(=O)O)NC(=O)[C@H](Cc2c[nH]c3ccccc23)NC(=O)[C@H](CCCNC(=N)N)NC(=O)[C@@H](Cc2ccccc2)NC(=O)[C@@H]2C[C@@H](Cc3ccccc3)CN2C1=O` [compound 55, Ac-Arg-cyclo(Asp- Pro(Bn)-D-Phe-Arg- Trp-Lys)-OH], for which the Ki came out at 12 nM.

For `CC(=O)N[C@@H](CCCNC(=N)N)C(=O)N[C@H]1CCCC(=O)NCC[C@@H](C(N)=O)NC(=O)[C@H](Cc2c[nH]c3ccccc23)NC(=O)[C@H](CCCNC(=N)N)NC(=O)[C@@H](Cc2ccccc2)NC(=O)[C@H](CCC(N)=O)NC1=O` [compound 147, Ac-Arg-cyclo(hGlu-Gln- D-Phe-Arg-Trp-Dab)- NH2], the Ki was 20 nM.

On to `CC(=O)N[C@@H](CCCNC(=N)N)C(=O)N[C@H]1CC(=O)NCCCC[C@@H](C(N)=O)NC(=O)[C@H](Cc2c[nH]c3ccccc23)NC(=O)[C@H](CCCNC(=N)N)NC(=O)[C@@H](Cc2ccccc2)NC(=O)[C@H](Cc2ccc(C(N)=O)cc2)NC1=O` [compound 50, Ac-Arg-cyclo(Asp- Phe(4-(C(═O)—NH2))-D- Phe-Arg-Trp-Lys)-NH2], for which the Ki turned out to be 30 nM.

Turning to `CC(=O)N[C@@H](CCCNC(=N)N)C(=O)N[C@H]1CC(=O)NCCCC[C@@H](C(N)=O)NC(=O)[C@H](Cc2c[nH]c3ccccc23)NC(=O)[C@H](CCCNC(=N)N)NC(=O)[C@@H](Cc2ccccc2)NC(=O)[C@H](CO)NC1=O` [compound 117, Ac-Arg-cyclo(Asp-Ser- D-Phe-Cit-Trp-Lys)-NH2], the Ki stood at 1450 nM. As to `CC(=O)N[C@@H](CCCNC(=N)N)C(=O)N[C@H]1CCC(=O)NCCC[C@@H](C(N)=O)NC(=O)[C@H](Cc2c[nH]c3ccccc23)NC(=O)[C@H](CCCNC(=N)N)NC(=O)[C@@H](Cc2ccccc2)NC(=O)[C@H](CC[S+](C)[O-])NC1=O` (stereo partly drawn) [compound 111, Ac-Arg-cyclo(Glu- Met(═O)-D-Phe-Arg- Trp-Orn)-NH2], the Ki turned out to be 9 nM. Same read-out and setting: the result for `CCCCC(=O)N[C@H]1CCC(=O)NCC[C@@H](C(=O)N[C@@H](Cc2c[nH]c3ccccc23)C(N)=O)NC(=O)[C@H](CCCNC(=N)N)NC(=O)[C@@H](Cc2ccccc2)NC(=O)[C@H](Cc2c[nH]cn2)NC1=O` [compound 153, n-C4H9—CO-cyclo(Glu- His-D-Phe-Arg-Dab)- Trp-NH2] reads 365 nM; that for `N=C(N)NCCC[C@H](NC(=O)CC1CCCCC1)C(=O)N[C@H]1CC(=O)NCCCC[C@@H](C(N)=O)NC(=O)[C@H](Cc2c[nH]c3ccccc23)NC(=O)[C@H](CCCNC(=N)N)NC(=O)[C@@H](Cc2ccccc2)NC(=O)[C@H](CCN)NC1=O` [compound 139, Cyclohexylacetyl-Arg- cyclo(Asp-Dab-D-Phe- Arg-Trp-Lys)-NH2], 1 nM; that for `CC(=O)N[C@@H](CCCNC(=N)N)C(=O)N[C@H]1CC(=O)NCCCC[C@@H](C(N)=O)NC(=O)[C@H](Cc2c[nH]c3ccccc23)NC(=O)[C@H](CCCNC(=N)N)NC(=O)[C@@H](Cc2ccccc2)NC(=O)[C@H]([C@@H](C)OCc2ccccc2)NC1=O` [compound 14, Ac-Arg-cyclo(Asp- Thr(Bzl)-D-Phe-Arg- Trp-Lys)-NH2] (Ac-RDT(Bn)[dF]RWK-NH2; lactam 2-7), 1 nM. As to `CC(=O)N[C@@H](CCCNC(=N)N)C(=O)N[C@H]1CCCC(=O)NCC[C@@H](C(=O)O)NC(=O)[C@H](Cc2c[nH]c3ccccc23)NC(=O)[C@H](CCCNC(=N)N)NC(=O)[C@@H](Cc2ccccc2)NC(=O)[C@H](CCN)NC1=O` [compound 144, Ac-Arg-cyclo(hGlu-Dab- D-Phe-Arg-Trp-Dab)- OH], the Ki is 45 nM.

Another experiment has as its target T1, hMC4-R. The experiment in a line: Competitive binding assay using Eu-NDP-α-MSH (TRF), hMC4-R membranes. Particulars: averaged; Eu-NDP-α-MSH (values marked *); read-out: MC4-R Ki. As for the experimental part: Alternatively, a competitive inhibition binding assay was performed employing Eu-NDP-α-MSH (PerkinElmer Life Sciences catalog No. AD0225) with determination by time-resolved fluorometry (TRF) of the lanthanide chelate. […] After incubation for 90 minutes at 37° C., the reaction was stopped by filtration over AcroWell 96-well filter plates (Pall Life Sciences). The filter plates were washed 4 times with 200 μL of ice-cold phosphate-buffered saline. DELFIA Enhancement solution (PerkinElmer Life Sciences) was added to each well. […] Each assay was conducted in duplicate and mean values were utilized. Ki values were determined by curve-fitting with Graph-Pad Prism® software using a one-site fixed-slope competition binding model.
As for `CC(=O)N[C@H](CCCCN)C(=O)N[C@H]1CCCNC(=O)CC[C@@H](C(N)=O)NC(=O)[C@H](Cc2c[nH]c3ccccc23)NC(=O)[C@H](CCCNC(=N)N)NC(=O)[C@@H](Cc2ccccc2)NC(=O)[C@H](Cc2c[nH]cn2)NC1=O` [compound 133, Ac-D-Lys-cyclo(Orn- His-D-Phe-Arg-Trp- Glu)-NH2], the Ki was determined as 8 nM. As for `CC(=O)N[C@@H](CCCNC(=N)N)C(=O)N[C@H]1CC(=O)NCCCC[C@@H](C(N)=O)NC(=O)[C@H](Cc2c[nH]c3ccccc23)NC(=O)[C@H](CCCCN)NC(=O)[C@@H](Cc2ccccc2)NC(=O)[C@H](Cc2c[nH]cn2)NC1=O` [compound 6, Ac-Arg-cyclo(Asp-His- D-Phe-Lys-Trp-Lys)- NH2] (HELM PEPTIDE1{[ac].R.D.H.[dF].K.W.K.[am]}$PEPTIDE1,PEPTIDE1,3:R3-8:R3$$$V2.0), the Ki came to 533 nM.

With `CC[C@H](C)[C@@H]1NC(=O)[C@@H](NC(=O)[C@H](CCCNC(=N)N)NC(C)=O)CC(=O)NCCCC[C@@H](C(N)=O)NC(=O)[C@H](Cc2c[nH]c3ccccc23)NC(=O)[C@H](CCCNC(=N)N)NC(=O)[C@@H](Cc2ccccc2)NC1=O` [compound 34, Ac-Arg-cyclo(Asp-Ile-D- Phe-Arg-Trp-Lys)-NH2] (HELM PEPTIDE1{[ac].R.D.I.[dF].R.W.K.[am]}$PEPTIDE1,PEPTIDE1,3:R3-8:R3$$$V2.0), the Ki was determined as 19 nM. On the same count and under the same terms, the result for `CC(=O)N[C@H](CCCNC(=N)N)C(=O)N[C@H]1CCC(=O)NCCC[C@@H](C(=O)O)NC(=O)[C@H](Cc2c[nH]c3ccccc23)NC(=O)[C@H](CCCNC(=N)N)NC(=O)[C@@H](Cc2ccccc2)NC(=O)[C@H](Cc2c[nH]cn2)NC1=O` [compound 85, Ac-D-Arg-cyclo(Glu- His-D-Phe-Arg-Trp- Orn)-OH] (HELM PEPTIDE1{[ac].[dR].E.H.[dF].R.W.[Orn]}$PEPTIDE1,PEPTIDE1,3:R3-8:R3$$$V2.0) reads 40 nM. Regarding `CC(=O)N[C@@H](CCCNC(=N)N)C(=O)N[C@H]1CCC(=O)NCCC[C@@H](C(=O)NC2CC2)NC(=O)[C@H](Cc2c[nH]c3ccccc23)NC(=O)[C@H](CCCNC(=N)N)NC(=O)[C@@H](Cc2ccccc2)NC(=O)[C@H](Cc2c[nH]cn2)NC1=O` [compound 110, Ac-Arg-cyclo(Glu-His- D-Phe-Arg-Trp-Orn)- NH-cyclopropyl] (HELM PEPTIDE1{[ac].R.E.H.[dF].R.W.[Orn].[C1CC1N[*:1]]}$PEPTIDE1,PEPTIDE1,3:R3-8:R3$$$V2.0), the Ki is 1 nM.

For `CSCC[C@@H]1NC(=O)[C@@H](NC(=O)[C@H](CCCNC(=N)N)NC(C)=O)CC(=O)NCCCC[C@@H](C(N)=O)NC(=O)[C@H](Cc2c[nH]c3ccccc23)NC(=O)[C@H](CCCNC(=N)N)NC(=O)[C@@H](Cc2ccccc2)NC1=O` [compound 38, Ac-Arg-cyclo(Asp-Met- D-Phe-Arg-Trp-Lys)- NH2] (HELM PEPTIDE1{[ac].R.D.M.[dF].R.W.K.[am]}$PEPTIDE1,PEPTIDE1,3:R3-8:R3$$$V2.0), the Ki came out at 35 nM. Still for that read-out and setting: the result for `CC(=O)N[C@@H](CCCNC(=N)N)C(=O)N[C@H]1CCC(=O)NCCC[C@@H](C(=O)O)NC(=O)[C@H](Cc2c[nH]c3ccccc23)NC(=O)[C@H](CCCNC(=N)N)NC(=O)[C@@H](Cc2ccccc2)NC(=O)[C@H](CCCCN)NC1=O` [compound 89, Ac-Arg-cyclo(Glu-Lys- D-Phe-Arg-Trp-Orn)- OH] (HELM PEPTIDE1{[ac].R.E.K.[dF].R.W.[Orn]}$PEPTIDE1,PEPTIDE1,3:R3-8:R3$$$V2.0) reads 113 nM; that for `CC(=O)N[C@@H](CCCNC(=N)N)C(=O)N[C@H]1CC(=O)NCCCC[C@@H](C(N)=O)NC(=O)[C@H](Cc2c[nH]c3ccccc23)NC(=O)[C@H](CCCNC(=N)N)NC(=O)[C@@H](Cc2ccccc2)NC(=O)[C@H]([C@@H](C)O)NC1=O` [compound 35, Ac-Arg-cyclo(Asp-Thr- D-Phe-Arg-Trp-Lys)- NH2] (HELM PEPTIDE1{[ac].R.D.T.[dF].R.W.K.[am]}$PEPTIDE1,PEPTIDE1,3:R3-8:R3$$$V2.0), 140 nM. Consider `CC(=O)N[C@@H](CCCNC(=N)N)C(=O)N[C@H]1CC(=O)NCCCC[C@@H](C(N)=O)NC(=O)[C@H](Cc2c[nH]c3ccccc23)NC(=O)[C@H](CCCNC(=N)N)NC(=O)[C@@](C)(Cc2ccccc2)NC(=O)[C@H](Cc2c[nH]cn2)NC1=O` [compound 60, Ac-Arg-cyclo(Asp-His- D-(alpha-Me)Phe-Arg- Trp-Lys)-NH2], for which the Ki is 47 nM. For the compound `CC(=O)N[C@@H](CCCNC(=N)N)C(=O)N[C@H]1CC(=O)NCCCC[C@@H](C(N)=O)NC(=O)[C@H](Cc2c[nH]c3ccccc23)NC(=O)[C@H](CCCNC(=N)N)NC(=O)[C@@H](Cc2ccccc2)NC(=O)[C@@H]2C[C@@H](OCc3ccccc3)CN2C1=O` [compound 15, Ac-Arg-cyclo(Asp- Hyp(Bzl)-D-Phe-Arg- Trp-Lys)-NH2], the Ki worked out at 0.7 nM.
